# Patent US10280173B2, “Ibrutinib solid forms and production process therefor” (WAVELENGTH ENTERPRISES LTD., priority 2014, dated 2019)
# Key:
# [1] = Hygroscopicity test according to the European Pharmacopoeia, 5.11; assay type: physicochemical; conditions: 80±2% relative humidity, 25° C., 24 hours
# Method: The hygroscopicity test was carried out according to the European Pharmacopoeia, 5.11 Characters Section in Monographs at ambient temperature (about 25° C.) on substance “as is”.
# Desiccator with saturated ammonium chloride solution was prepared as follows: to a 100 mL of water was added accurately weighed 46.3 g of ammonium chloride under mixing. The solubility of ammonium chloride in water at ambient temperature is about 41.4 g/100 mL water at 30° C. An amount of amorphous ibrutinib was placed in a glass weighing vessel with stopper (m1) and weighed (m2). The un-stoppered vessel was placed in a desiccator containing a saturated solution of ammonium chloride (80±2% relative humidity) at 25° C. for 24 hours. The weighing vessel was stoppered and weighed (m3). The percentage increase in mass was calculated according to the following formula: […]
# The following Table 10 includes the standard defined hygroscopicity values according to the European Pharmacopoeia, 5.11 Characters Section in Monographs: […]
# [2] = rats; cited from earlier work
degree of hygroscopicity [1],Increase in mass % ([1]; substance as is) [%],Increase in mass g ([1]; m3 minus m2) [g],SMILES,oral bioavailability [2] [%]
slightly hygroscopic,1.24,0.01077,C=CC(=O)N1CCC[C@@H](n2nc(-c3ccc(Oc4ccccc4)cc3)c3c(N)ncnc32)C1 [amorphous ibrutinib],
,,,"C=CC(=O)N1CCC[C@@H](n2nc(-c3ccc(Oc4ccccc4)cc3)c3c(N)ncnc32)C1 [ibrutinib, 1-[(3R)-3-[4-amino-3-(4-phenoxyphenyl)-1H-pyrazolo[3,4-d]pyrimidin-1-yl]piperidin-1-yl]prop-2-en-1-one]",22.8
